Measurements taken from US20050059726A1, “Pyrrolidine-2-ones as factor xa inhibitors” (priority 2001, published 2005).
Counter-ions that a name gives are not always drawn.

Tests used:
human Factor Xa [1] = target: T1, human Factor Xa (Homo sapiens, UniProt P00742); experiment: In vitro assay for inhibition of Factor Xa (1), chromogenic assay; format: biochemical; conditions: substrate N-α-benzyloxycarbonyl-D-Arg-Gly-Arg-p-nitroanilide 200 μM, Ki calculated from IC50
Experimental: • 1. Klimkowski, Valentine Joseph; Kyle, Jeffrey Alan; Masters, John Joseph; Wiley, Michael Robert. PCT Int. Appl. (2000), WO 0039092. In Vitro Assay for Inhibition of Factor Xa (1)
Compounds were diluted from a 10 mM stock solution in dimethylsulfoxide at appropriate concentrations. Assay was performed at room temperature using buffer consisting of: 50 mM Tris-HCl, 150 mM NaCl, 5 mM CaCl2, pH 7.4. containing human Factor Xa (final conc. of 0.0015 U,ml^−1). Compound and enzyme were preincubated for 15 min prior to addition of the substrate (final conc. of 200 μM). The reaction was stopped after 30 min with the addition of soybean trypsin inhibitor or H-D-PHE-PRO-ARG-Chloromethylketone. BioTek EL340 or Tecan Spectrafluoro Plus plate readers were used to monitor the absorbance at 405 nm. To obtain IC50 values the data were analysed using ActivityBase® and XLfit®.
Calculation of Ki values:
Ki=IC50/(1+[Substrate]/Km)
The Ki value for the above assay can be obtained by dividing the IC50 value by 1.6.

human Factor Xa [2] = target: T1, human Factor Xa; experiment: In vitro assay for inhibition of Factor Xa (2), fluorogenic assay; format: biochemical; conditions: substrate Rhodamine 110, bis-(CBZ-glycylglycyl-L-arginine amide 10 μM), Ki calculated from IC50
Outline: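 Enzyme (final 0.0003 U/mL) preincubated 15 min with compound at room temperature in 50 mM Tris-HCl, 150 mM NaCl, 5 mM CaCl2, pH 7.4, then rhodamine 110 bis-(CBZ-Gly-Gly-Arg amide) substrate added (final 10 μM).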

T1 sequence (P00742 235-488 limits assumed): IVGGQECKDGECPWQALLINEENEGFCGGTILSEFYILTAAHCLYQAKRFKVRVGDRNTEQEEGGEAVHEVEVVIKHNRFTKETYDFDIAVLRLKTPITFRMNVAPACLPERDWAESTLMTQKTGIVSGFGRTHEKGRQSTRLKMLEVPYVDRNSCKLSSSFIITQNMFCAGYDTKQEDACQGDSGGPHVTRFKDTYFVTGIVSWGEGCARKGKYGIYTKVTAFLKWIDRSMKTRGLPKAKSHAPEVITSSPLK
T1 sequence (P00742 41-179 partner limits assumed): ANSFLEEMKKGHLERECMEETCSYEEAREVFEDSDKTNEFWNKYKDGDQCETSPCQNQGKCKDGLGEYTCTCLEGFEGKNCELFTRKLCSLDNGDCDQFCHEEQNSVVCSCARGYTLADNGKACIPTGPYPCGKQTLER

Compound	Ki (human Factor Xa [1]) [nM]	Ki (human Factor Xa [2]) [nM]
CN(C)c1ccc(N2CC[C@H](NS(=O)(=O)c3ccc4cc(Cl)ccc4c3)C2=O)cc1 [Example 2, 6-Chloro-N-{(3S)-1-[4-(dimethylamino)phenyl]-2-oxopyrrolidin-3-yl}naphthalene-2-sulfonamide]	< 20	–
CS(=O)(=O)c1ccccc1-c1ccc(N2CC[C@H](NS(=O)(=O)c3cc4cc(Cl)ccc4o3)C2=O)nc1 [Example 23, 5-Chloro-N-((3S)-1-{5-[2-(methylsulfonyl)phenyl]pyridin-2-yl}-2-oxopyrrolidin-3-yl)-1-benzofuran-2-sulfonamide]	< 1000	–
Cn1cncc1-c1ccc(N2CC[C@H](NS(=O)(=O)c3ccc4cc(Cl)ccc4c3)C2=O)c(F)c1 [Example 85, 6-Chloro-N-{(3S)-1-[2-fluoro-4-(1-methyl-1H-imidazol-5-yl)phenyl]-2-oxopyrrolidin-3-yl}naphthalene-2-sulfonamide]	< 10	–
CS(=O)(=O)Nc1ccccc1-c1ccc(N2CC[C@H](NS(=O)(=O)/C=C/c3ccc(Cl)s3)C2=O)nc1 [Example 21, (E)-2-(5-Chlorothien-2-yl)-N-[(3S)-1-(5-{2-[(methylsulfonyl)amino]phenyl}pyridin-2-yl)-2-oxopyrrolidin-3-yl]ethenesulfonamide]	< 20	–
CC(C)(C)c1ccc(N2CC[C@H](NS(=O)(=O)c3ccc4cc(Cl)ccc4c3)C2=O)cc1 [Example 125, N-[(3S)-1-(4-tert-butylphenyl)-2-oxopyrrolidinyl]-6-chloro-2-naphthalenesulfonamide]	< 200	–
O=C1[C@@H](NS(=O)(=O)c2ccc3cc(Cl)ccc3c2)CCN1c1ccc(I)cc1F [Example 89, 6-Chloro-N-[(3S)-1-(2-fluoro-4-iodophenyl)-2-oxopyrrolidin-3-yl]naphthalene-2-sulfonamide]	< 200	–
O=C1[C@@H](NS(=O)(=O)c2ccc3cc(Cl)ccc3c2)CCN1c1ccc(-c2ccncc2Cl)cc1F [Example 83, 6-chloro-N-{(3S)-1-[4-(3-Chloropyridin-4-yl)-2-fluorophenyl]-2-oxopyrrolidin-3-yl}naphthalene-2-sulfonamide]	< 10	–
CNS(=O)(=O)c1ccccc1-c1ccc(N2CC[C@H](NS(=O)(=O)/C=C/c3ccc(Cl)s3)C2=O)c(F)c1 [Example 19, 4′-[(3S)-3-({[(E)-2-(5-Chlorothien-2-yl)ethenyl]sulfonyl}amino)-2-oxopyrrolidin-1-yl]-3′-fluoro-N-methyl-1,1′-biphenyl-2-sulfonamide]	< 10	–
O=C1[C@@H](NS(=O)(=O)/C=C/c2ccc(Cl)s2)CCN1c1ccc(I)cn1 [Example 90, (E)-2-(5-Chlorothien-2-yl)-N-[(3S)-1-(5-iodopyridin-2yl)oxopyrrolidin-3-yl]ethenesulfonamide]	< 1000	–
O=C1[C@@H](NS(=O)(=O)c2ccc3cc(Cl)ccc3c2)CCN1c1ccc(-c2cc[n+]([O-])cc2)cc1F [Example 76, 6-Chloro-N-{(3S)-1-[2-fluoro-4-(1-oxidopyridin-4-yl)phenyl]-2-oxopyrrolidin-3-yl}naphthalene-2-sulfonamide]	–	< 20
O=C1[C@@H](NS(=O)(=O)c2ccc3cc(Cl)ccc3c2)CCN1c1ccc(-c2ncccn2)cc1F [Example 81, 6-Chloro-N-[(3S)-1-(2-fluoro-4-pyrimidin-2-ylphenyl)-2-oxopyrrolidin-3-yl]naphthalene-2-sulfonamide]	–	< 1000
C/C(=C\S(=O)(=O)N[C@H]1CCN(c2ccc(NS(C)(=O)=O)cc2F)C1=O)c1ccc(Cl)s1 [Example 137, (1E)-2-(5-Chlorothien-2-yl)-N-((3S)-1-{2-fluoro-4-[(methylsulfonyl)amino]phenyl}-2-oxopyrrolidin-3-yl)prop-1-ene-1-sulfonamide]	–	< 20
O=C1[C@@H](NS(=O)(=O)c2ccc3cc(Cl)ccc3c2)CCN1c1ccc(-n2cccn2)cc1F [Example 129, 6-Chloro-N-{(3S)-1-[2-fluoro-4-(1H-pyrazol-1-yl)phenyl]-2-oxopyrrolidinyl}-2-naphthalenesulfonamide]	–	< 10
C/C(=C\S(=O)(=O)N[C@H]1CCN(c2ccc(-c3ccccc3S(N)(=O)=O)cc2F)C1=O)c1ccc(Cl)s1 [Example 16, 4′-[(3S)-3-({[(1E)-2-(5-Chlorothien-2-yl)prop-1-enyl]sulfonyl}amino)-2-oxopyrrolidin-1-yl]-3′-fluoro-1,1′-biphenyl-2-sulfonamide]	–	< 10
C[N+](C)(CC(N)=O)Cc1nccn1-c1ccc(N2CC[C@H](NS(=O)(=O)c3cc4ccc(Cl)cc4s3)C2=O)c(F)c1 [Example 144, 2-Amino-N-({1-[4-((3S)-3-{[(6-chloro-1-benzothien-2-yl)sulfonyl]amino}-2-oxopyrrolidin-1-yl)-3-fluorophenyl]-1 H-imidazol-2-yl}methyl)-N,N-dimethyl-2-oxoethanaminium Formate]	–	< 10
NC(=O)CN([C@H]1CCN(c2ccc(C(N)=O)cc2F)C1=O)S(=O)(=O)/C=C/c1ccc(Cl)s1 [Example 133, 4-[(3S)-3-((2-Amino-2-oxoethyl){[(E)-2-(5-chlorothien-2-yl)ethenyl]sulfonyl}amino)-2-oxopyrrolidin-1yl]-3-fluorobenzamide]	–	< 10
CC(=O)c1ccc(N2CC[C@H](NS(=O)(=O)/C=C/c3ccc(Cl)s3)C2=O)cc1 [Example 138, (E)-N-[(3S)-1-(4-Acetylphenyl)-2-oxopyrrolidin-3-yl]-2-(5-chlorothien-2-yl)ethenesulfonamide]	–	< 200
O=C1[C@@H](NS(=O)(=O)c2ccc3cc(Cl)ccc3c2)CCN1c1ccc(-c2ncccc2Cl)cc1F [Example 82, 6-Chloro-N-{(3S)-1-[4-(3-chloropyridin-2-yl)-2-fluorophenyl]-2-oxopyrrolidin-3-yl}naphthalene-2-sulfonamide]	–	< 10
CS(=O)(=O)c1ccccc1-c1ccc(N2CC[C@H](N(CC(=O)O)S(=O)(=O)/C=C/c3ccc(Cl)s3)C2=O)c(F)c1 [Example 49]	–	< 10
Cc1ccc(-c2ccc(N3CC[C@H](NS(=O)(=O)c4ccc5cc(Cl)ccc5c4)C3=O)c(F)c2)o1 [Example 73, 6-Chloro-N-{(3S)-1-[2-fluoro-4-(5-methyl-2-furyl)phenyl]-2-oxopyrrolidin-3-yl}naphthalene-2-sulfonamide]	< 1000	–
CS(=O)(=O)c1ccccc1-c1ccc(N2CC[C@H](NS(=O)(=O)c3cc4sc(Cl)cc4s3)C2=O)c(F)c1 [Example 87, 5-Chloro-N-{(3S)-1-[3-fluoro-2′-(methylsulfonyl)-1,1′-biphenyl-4-yl]-2-oxopyrrolidin-3-yl}thieno[3.2-b]thiophene-2-sulfonamide]	–	< 10
CS(=O)(=O)c1ccccc1-c1ccc(N2CC[C@H](NS(=O)(=O)c3ccc(C#N)cc3)C2=O)c(F)c1 [Example 34]	–	< 1000
O=C1[C@@H](NS(=O)(=O)/C=C/c2ccc(Cl)s2)CCN1c1ccc(-c2ccncc2Cl)cc1F [Example 80, (E)-N-{(3S)-1-[4-(3-Chloropyridin-4-yl)-2-fluorophenyl]-2-oxopyrrolidin-3-yl}-2-(5-chlorothien-2-yl)ethenesulfonamide]	–	< 10
NC(=O)c1ccc(N2CC[C@H](NS(=O)(=O)/C=C/c3ccc(Cl)s3)C2=O)nc1 [Example 106, 6-[(3S)-3-({[(E)-2-(5-Chlorothien-2-yl)ethenyl]sulfonyl}amino)-2-oxopyrrolidin-1-yl]nicotinamide]	–	< 200
CC(C)(C)OC(=O)CN([C@H]1CCN(c2ccc(-c3ccccc3S(C)(=O)=O)cn2)C1=O)S(=O)(=O)/C=C/c1ccc(Cl)s1 [Example 40, tert-Butyl [{[(E)-2-(5-Chlorothien-2-yl)ethenyl]sulfonyl}((3S)-1-{5-[2-(methylsulfonyl)phenyl]pyridin-2-yl}-2-oxopyrrolidin-3-yl)amino]acetate]	–	< 10
O=C1[C@@H](NS(=O)(=O)c2ccc(-c3ccc(Cl)s3)s2)CCN1c1ccc(I)cc1F [Example 92, 5′-Chloro-N-[(3S)-1-(2-fluoro-4-iodophenyl)-2-oxopyrrolidin-3-yl]-2,2′-bithiophene-5-sulfonamide]	–	< 10
CS(=O)(=O)c1ccccc1-c1ccc(N2CC[C@H](N(CC(=O)O)S(=O)(=O)/C=C/c3ccc(Cl)s3)C2=O)nc1 [Example 48, {[(E)-2-(5-Chlorothien-2-yl)(ethenyl]sulfonyl}((3S)-1-{5-[2-(methylsulfonyl)phenyl]pyridin-2-yl}-2-oxopyrrolidin-3-yl)amino]acetic Acid]	–	< 10
CS(=O)(=O)c1ccccc1-c1ccc(N2CC[C@H](N(CCN3CCOCC3)S(=O)(=O)/C=C/c3ccc(Cl)s3)C2=O)nc1 [Example 42, (E)-2-(5-Chlorothien-2-yl)-N-((3S)-1-{5-[2-(methylsulfonyl)Phenyl]pyridin-2-yl}-2-oxopyrrolidin-3-yl)-N-(2-morpholin-4-ylethyl)ethenesulfonamide Formate Salt (1:1)]	–	< 10
